Literature values as cited in publication PMC2110886 (PLoS ONE, 2007).

Tested on: Seasonal influenza strains
Parameters: method as in PMID 15709056
Conditions: in children; cited from earlier work

For `CCOC(=O)C1=C[C@@H](OC(CC)CC)[C@H](NC(C)=O)[C@@H](N)C1` [Oseltamivir, oseltamivir, reference compound], the “rate of resistance to oseltamivir” value is listed as 4%.
